Literature values, collected in patent EP0665714B1, “GRANULAR WATER SOLUBLE OR HYGROSCOPIC AGRICULTURAL FORMULATIONS AND METHODS OF MAKING THEM” (BASF CORPORATION, priority 1992, dated 1994).

Details: in general

C[N+]1(C)CCCCC1.[Cl-] [mepiquat chloride, 1,1-dimethylpiperidinium chloride]
water solubility: more than 600 g/l
